Test results from PubChem BioAssay AID1117361 (Southern Research Institute, 2015).

Target: Protein Tat (Human immunodeficiency virus type 1 group M subtype B (isolate HXB2)) (UniProt P04608)
Experiment: inhibitors of Tat binding to TAR RNA, dose response, counter-screen for Vif-APOBEC3G degradation inhibitor project, biochemical, fluorescence polarization, FAM-labeled TAR RNA (AID 1117361)

Chain of Protein Tat (Human immunodeficiency virus type 1 group M subtype B (isolate HXB2)) (P04608 whole entry, looked up): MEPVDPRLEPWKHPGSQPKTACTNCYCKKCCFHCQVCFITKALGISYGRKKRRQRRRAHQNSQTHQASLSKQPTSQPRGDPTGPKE

| SMILES | IC50 [µM] |
| --- | --- |
| Cc1cccc(NC(=O)CNC(=O)c2cccc(-n3cccc3)c2)c1C | 63.3 |
| O=C1CC(SC(=S)C2CCCC2=O)C(=O)N1 (configuration not stated) | 3.21 |
| Cc1c(Br)c(O)c(Br)c2sc(=O)oc12 | 25.3 |
| CCOc1cccc(CNCCNC(=O)c2nonc2N)c1 | 84.2 |
| COc1cccc(NS(=O)(=O)c2ccc3c(c2)C2C=CCC2C(c2ccc(C(=O)O)cc2)N3)c1 (configuration not stated) | 3.59 |
| Cc1n[nH]c(=S)n(NC(=O)/C=C/C(=O)Nn2c(=S)[nH]nc(C)c2=O)c1=O | 18.2 |
| O=S(=O)(O)c1cc(O)c(N=Nc2ccc(O)cc2O)c2ccccc12 | 51.3 |
| O=C(NCc1ccccn1)c1ccc2nc(-c3ccco3)c(-c3ccco3)nc2c1 | 4.75 |
| Oc1ccccc1/C=N/c1c(-c2ccco2)nc2ccccn12 | 2.97 |
| CC(C)Cn1c(SCC(=O)NC(=O)Nc2ccc3c(c2)OCCO3)nc2ccccc2c1=O | 1.62 |
| Cc1ccc(C)n1-c1cccc(C(=O)O)c1 | 2.07 |
| CCOc1cc(N2CCOCC2)c(OCC)cc1NC(=O)CSc1ncn[nH]1 | 35.7 |
| COc1ccc(NC(=S)NCCc2ccccc2OC)c(OC)c1 | 13.7 |
| Cn1cccc1/C=C1/C(=O)NC(=O)N(Cc2ccccc2)C1=O | 67 |
| CCCCn1c(O)c(C(CC)=NCCN2CCCCC2)c(=O)[nH]c1=O | 32.5 |
| NCCc1c[nH]c2ccccc12 | 11.8 |
| O=C(O)C(Cc1ccccc1)N1C(=O)/C(=C/C=C/c2ccco2)SC1=S (configuration not stated) | 1.26 |
| CSc1nc(NCCOCCO)c2sc3nc(-c4ccco4)c4c(c3c2n1)CCC4 | 9.42 |
| O=C(c1cc(-c2ccco2)on1)N1CCN(c2ccccc2)CC1 | 18.6 |
| O=C1CC(Nc2ccc(N3CCOCC3)cc2)C(=O)N1c1ccccc1F (configuration not stated) | 12.9 |
| O=[N+]([O-])c1c(NCCO)cc(Sc2nc3ccccc3s2)c2nonc12 | 90.1 |
| O=C1CCCC(O)=C1N=Nc1cccc(C(=O)O)c1 | 13.7 |
| O=C(O)/C=C/C(=O)Nc1cccnc1 | 2.02 |
| CCNc1ccc(Br)cc(C(=O)/C=C/c2ccc(Cl)cc2)c1=O | 12.5 |

| SMILES | IC50 [µM] |
| --- | --- |
| CCOC(=O)CNc1ccc2c(c1)OCO2 | 1.47 |
| CC(=O)NN1C(=O)/C(=C\c2ccc(Br)o2)SC1=S | 4.82 |
| CN(C)c1ccc(Cc2cc3c(O)ccc(O)c3cc(Cc3ccc(N(C)C)cc3)c2=O)cc1 | 85.4 |
| O=C(N/N=C/C=C/c1ccco1)c1ccncc1 | 10.2 |
| CC(=O)c1ccc(S(=O)(=O)Nc2cccc(-n3cnnn3)c2)cc1 | 74.2 |
| CCOC(=O)CSc1nncc2ccc(OC)c(OC)c12 | 56.6 |
| Cc1cccc(N2C(=O)NC(=O)/C(=C/c3cc4c(cc3[N+](=O)[O-])OCO4)C2=O)c1 | 0.906 |
| O=C(O)c1ccc(-n2cccc2/C=C2/NC(=O)N(c3cccc(Cl)c3)C2=O)cc1 | 7.85 |
| CN1C(=O)/C(=C/c2cccn2-c2ccc3ccccc3c2)C(=O)NC1=S | 44.5 |
| Cc1ccc(C)n1/N=C1/NC(=O)CS1 | 0.882 |
| O=C(O)c1cc2cccc(S(=O)(=O)N3CCOCC3)c2cc1O | 80.3 |
| COc1cccc(N2C(=O)NC(=O)/C(=C/c3ccc([N+](=O)[O-])s3)C2=O)c1 | 34.3 |
| O=C(Cc1cc(=O)[nH][nH]1)N/N=C/C=C/c1ccccc1 | 43.1 |
| CCN1CCN(c2cc(N3CCN(C(=O)c4ccco4)CC3)c3c4c(onc24)-c2ccccc2C3=O)CC1 | 5.77 |
| CNCc1ccccc1Sc1cc(O)ccc1O | 17.5 |
| COc1ccc(-c2cc(-c3ccco3)[nH]c(=O)c2C#N)cc1 | 15.1 |
| Cc1ccc(C)c2[nH]c(=O)c(CN(Cc3ccc4c(c3)OCO4)Cc3nnnn3Cc3ccco3)cc12 | 39.6 |
| CCN(CC)c1ccc2c(c1)CCCN2 | 2.89 |
| Cc1ccc(N2C(=O)/C(=C\c3ccco3)SC2=S)cc1 | 36 |
| NC(=O)/C(=C/c1ccco1)C(N)=S | 12 |
| O=C(COC(=O)/C=C/c1ccco1)Nc1ncc(C(F)(F)F)cc1Cl | 20.2 |
| CN(C)c1ccc(N=C/C=C2/N(C)c3ccccc3C2(C)C)cc1 | 64.4 |
| COc1ccc(OC)c(S(=O)(=O)Nc2ccc(O)c3ccccc23)c1 | 83 |
| O=C1CC(c2ccco2)CC(O)=C1C=Nc1ccc(Br)cc1 (configuration not stated) | 77.6 |

| SMILES | IC50 [µM] |
| --- | --- |
| Cc1ccc(/C=C/C(=O)Nc2cccc(S(=O)(=O)N3CCOCC3)c2)o1 | 89.1 |
| Cc1noc(/C=C/c2ccco2)c1S(=O)(=O)N1CCC(C(=O)NCc2ccco2)CC1 | 6.93 |
| C=C(C)C(=O)Nc1cccc(C2=NOC3(C2)C[C@@H](C(N)=O)N(C(=O)/C=C/CC)C3)c1 (some centres not stated) | 24.5 |
| CCOc1cccc(CNc2ccc(O)cc2)c1OCc1ccccc1Cl | 63 |
| C=CC1=C(C(=O)O)N2C(=O)C(NC(=O)Cc3ccccc3)C2SC1 (configuration not stated) | 64.2 |
| CCC1=NN2C(=N)/C(=C\c3ccc(SCc4ccco4)o3)C(=O)N=C2S1 | 63.3 |
| CNc1c(C(=O)O)ccc2c1C(=O)c1ccccc1C2=O | 21.9 |
| Cc1ccc(/C=C/C(=O)Nc2ncc(C)s2)o1 | 16 |
| O=C1NC(=Nc2ccc(O)cc2)S/C1=C\C=C\c1ccco1 | 18.3 |
| O=C1C(=Cc2ccco2)CCCC1=Cc1ccco1 | 63.9 |
| Cc1cnnc2ccc3c(no[n+]3[O-])c12 | 36.5 |
| O=C1NC(=S)SC1=C1CCCC1 | 6.59 |
| Cc1ccccc1NC(=O)CSc1nnc(-c2ccco2)c(-c2ccco2)n1 | 2.73 |
| COc1cc(CC(=O)OCC(=O)Nc2cccc([N+](=O)[O-])c2)cc(OC)c1OC | 26.6 |
| O=C(Nc1nnc(C2CCCO2)s1)c1cccs1 (configuration not stated) | 98.8 |
| O=C1CCC/C(=N\NC(=O)c2ccc(COc3cccc4cccnc34)cc2)C1 | 82.3 |
| O=[n+]1c2c(n([O-])c3cc(Cl)ccc31)CCCC2 | 42.9 |
| CC1S/C(=N/N=C/c2ccco2)NC1=O (configuration not stated) | 70.3 |
| Nc1ncnc2oc(-c3ccco3)c(-c3ccco3)c12 | 3.36 |
| CCN1C(=O)/C(=C\c2ccc([N+](=O)[O-])s2)C(=O)NC1=S | 4.07 |
| CN(C)c1ccc(N2C(=O)CSC2=S)cc1 | 54.6 |
| Cc1c(C(=O)O)cccc1-n1c(C)cc(/C=N/Nc2ccc([N+](=O)[O-])cn2)c1C | 64 |
| CC(C)(C)NC(=O)C(c1ccncc1)N(C(=O)CNC(=O)c1ccco1)c1ccc2c(c1)OCO2 (configuration not stated) | 44.1 |
| Cn1c(=O)c2c(ncn2CC(=O)N/N=C/C=C/c2ccco2)n(C)c1=O | 17.1 |

| SMILES | IC50 [µM] |
| --- | --- |
| C=CCN1C(=O)/C(=C\c2ccco2)C(C(=O)OC)=C1C | 45.9 |
| CCOc1cccc(=O)c2c(C)n(C)c(C)c12 | 55.2 |
| CCOC(=O)C1=C(C)N=C2SC(C(=O)OC)=CC(=O)N2C1c1cc(OC)c(OC)c(OC)c1 (configuration not stated) | 31.4 |
| O=[N+]([O-])c1ccccc1S(=O)(=O)NC1CCCC1 | 45 |
| CN(C)S(=O)(=O)c1cccc(NC(=S)N/N=C/c2ccc(O)c(O)c2O)c1 | 23.2 |
| Oc1ccc2c(c1)C1CCCC1(N1CCOCC1)O2 (configuration not stated) | 23.1 |
| O=C1CCCC/C1=C/Nc1ccc2c(c1)OCO2 | 41.3 |
| O=C1/C(=C/C=C/c2ccco2)SC(=S)N1c1ccc(O)cc1 | 19.1 |
| CC(=O)Nc1ccc(S(=O)(=O)Nc2nc3ccccc3nc2Nc2ccc(N)cc2)cc1 | 43.3 |
| CC(C)N1CCC2(CC1)C(C#N)=C(N)NC(S)=C2C#N | 47.6 |
| COC(=O)c1ccc(=O)c2nc3/c(=C/O)c(O)cc(=O)c3[nH]c12 | 20.3 |
| O=C(NCCO)Nc1ccc2nc(-c3ccco3)c(-c3ccco3)nc2c1 | 1.76 |
| Cc1cc(-c2cc(-c3ccc(Cl)cc3)nc(N)c2C#N)co1 | 83.6 |
| CSc1ccc(/C=N/Nc2cccc(C(=O)O)c2)cc1 | 5.81 |
| O=C(COC(=O)c1ccc(NS(=O)(=O)c2cccs2)cc1)NCc1ccco1 | 16.4 |
| COC/C=C/C1=CC2=CC(=O)C(C)(OC(=O)c3cnc4ccccc4n3)C(=O)C2=CN1c1ccccc1 (configuration not stated) | 22.3 |
| COc1ccc2ccccc2c1C1CC(=O)N2CN(Cc3ccco3)CSC2=C1C#N (configuration not stated) | 67.7 |
| CC(C)C1Nc2ccc(C(=O)O)cc2C2C=CCC21 (configuration not stated) | 4.93 |
| Cc1cc(NC(=O)CCNS(=O)(=O)c2cc(Br)cnc2N)ccc1Br | 93.7 |
| COc1ccc2c3c(cccc13)N(C)N=C2C | 11.1 |
| O=C1C=CC(=O)c2c(O)c(CO)c(CO)c(O)c21 | 3.48 |
| CCOC(=O)C1=C(N)n2c(s/c(=C/c3ccco3)c2=O)=C(C(=O)OC)C1c1ccco1 (configuration not stated) | 9.78 |
| N#Cc1c(-c2ccco2)cc(-c2ccccc2)[nH]c1=O | 5 |
| CCOc1cccc(=O)c2c(C)oc(C)c12 | 22.6 |

| SMILES | IC50 [µM] |
| --- | --- |
| CNc1cccccc1=S | 4.41 |
| CCC(=O)N1N=C(c2ccc(NS(C)(=O)=O)cc2)CC1c1ccc(C)cc1 (configuration not stated) | 88.8 |
| COc1ccc(/C=C(\NC(=O)c2ccc(OCC(C)C)cc2)C(=O)OCc2ccco2)cc1 | 61.5 |
| C=CCN=c1scc(-c2ccco2)n1/N=C/c1ccc(O)c(O)c1O | 35.4 |
| Cc1ccc([C@@H]2C3COCC=C3C(C#N)=C(N)C2(C#N)C#N)o1 (some centres not stated) | 4.05 |
| CC(=O)OC1COC(n2ccc3ccccc32)C(OC(C)=O)C1OC(C)=O (configuration not stated) | 88.1 |
| C=CCn1c(C)c(C(C)=O)c(N2CCN(c3ccccc3)CC2)nc1=S | 7.51 |
| CCN(CC)c1ccc(NC(=O)CCS(=O)(=O)c2ccc(Br)cc2)c(C)c1 | 46.5 |
| CCOC(=O)C(=O)NCc1ccc(/C=C2/N=C(C)C(C(=O)OCC)=C2O)o1 | 4.71 |
| O=C(NN1C(=O)/C(=C/C=C/c2ccco2)SC1=S)c1ccccc1O | 4.46 |
| Oc1ccc(N=Cc2ccc(OCc3ccccc3)cc2)cc1 | 47.5 |
| Cc1ccc(C2SCC(=O)N2Cc2cn3ccsc3n2)o1 (configuration not stated) | 68.5 |
| O=C(NCCc1ccccc1)c1ccc2nc(-c3ccco3)c(-c3ccco3)nc2c1 | 33.1 |
| O=C(O)CCCNc1cc(N2CCC3(CC2)OCCO3)c2noc3c2c1C(=O)c1ccccc1-3 | 3.59 |
| COCCNC(=O)COC(=O)c1[nH]c(C)c(C(C)=O)c1C | 35.4 |
| Cc1ccc2c(c1)C1C=CCC1C(C(=O)O)N2 (configuration not stated) | 3.75 |
| CN(Cc1cnc2nc(N)nc(N)c2n1)c1ccc(C(=O)NC(CCC(=O)O)C(=O)O)cc1 (configuration not stated) | 40.1 |
| Cc1ccc(C)n1-c1sccc1C(=O)O | 0.909 |
| CC(C(=O)O)N1C(=O)/C(=C/C=C/c2ccco2)SC1=S (configuration not stated) | 1.54 |
| O=C1/C(=C/C=C/c2ccco2)SC(=S)N1NS(=O)(=O)c1ccccc1 | 2.48 |
| COC(=O)c1ccc(COc2ccccc2/C=C(\C#N)C(=O)Nc2c(C)cc(C)cc2C)cc1 | 46.2 |
